From ChEMBL document CHEMBL6078645, “Expanding the Solvent/Protein Region Occupation of the Non-Nucleoside Reverse Transcriptase Inhibitor Binding Pocket for Improved Broad-Spectrum Anti-HIV-1 Efficacy: from Rigid Phenyl-Diarylpyrimidines to Flexible Hydrophilic Piperidine-Diarylpyrimidines” (J Med Chem, 2024)
“And” between values parts separate entries of the source, which are not always exact repeats. Equal values may be shown once. One block for each compound: values may come before it.

Columns and labels:
[1] = biological target: T1, Human immunodeficiency virus type 1 reverse transcriptase (Human immunodeficiency virus 1, UniProt Q72547); assay: Inhibition of HIV-1 reverse transcriptase
[2] = tested on: Human immunodeficiency virus 1; assay: Antiviral activity against HIV-1 harboring Y188L mutant infected in human MT4 cells assessed as protection against virus-induced cytopathic effect incubated for 5 days by MTT assay; type: functional, organism-based; conditions: Human immunodeficiency virus 1, MT4, 120 h
[3] = tested on: Human immunodeficiency virus 1; assay: Antiviral activity against HIV-1 harboring F227L/V106A double mutant infected in human MT4 cells assessed as protection against virus-induced cytopathic effect incubated for 5 days by MTT assay; type: functional, organism-based; conditions: Human immunodeficiency virus 1, MT4, 120 h
[4] = tested on: Human immunodeficiency virus 1; assay: Antiviral activity against HIV-1 harboring RES056 mutant infected in human MT4 cells assessed as protection against virus-induced cytopathic effect incubated for 5 days by MTT assay; type: functional, organism-based; conditions: Human immunodeficiency virus 1, MT4, 120 h
[5] = Cytotoxicity against human MT4 cells assessed as reduction in cell viability incubated for 5 days by MTT assay; type: toxicity, cell-based; conditions: MT4 cells, time 5 day
[6] = Selectivity index, ratio of CC50 for cytotoxicity against human MT4 cells assessed as reduction in cell viability to EC50 for antiviral activity against wild type HIV-1 IIIB infected in human MT4 cells assessed as protection against virus-induced cytopathic effect; type: toxicity, cell-based; conditions: MT4 cells, read-out: Ratio CC50/EC50
[7] = tested on: Human immunodeficiency virus 1; assay: Antiviral activity against HIV-1 harboring L100I mutant infected in human MT4 cells assessed as protection against virus-induced cytopathic effect incubated for 5 days by MTT assay; type: functional, organism-based; conditions: Human immunodeficiency virus 1, MT4, 120 h
[8] = tested on: Human immunodeficiency virus 1; assay: Antiviral activity against HIV-1 harboring K103N mutant infected in human MT4 cells assessed as protection against virus-induced cytopathic effect incubated for 5 days by MTT assay; type: functional, organism-based; conditions: Human immunodeficiency virus 1, MT4, 120 h
[9] = tested on: Human immunodeficiency virus 1; assay: Antiviral activity against HIV-1 harboring Y181C mutant infected in human MT4 cells assessed as protection against virus-induced cytopathic effect incubated for 5 days by MTT assay; type: functional, organism-based; conditions: Human immunodeficiency virus 1, MT4, 120 h
[10] = tested on: Human immunodeficiency virus 1; assay: Antiviral activity against HIV-1 harboring E138K mutant infected in human MT4 cells assessed as protection against virus-induced cytopathic effect incubated for 5 days by MTT assay; type: functional, organism-based; conditions: Human immunodeficiency virus 1, MT4, 120 h
[11] = biological target: T1, Human immunodeficiency virus type 1 reverse transcriptase; assay: Inhibition of wildtype recombinant HIV-1 Reverse transcriptase incubated for 40 mins by spectrofluorometric analysis

Structure (SMILES): CNS(=O)(=O)c1ccc(CN2CCC(Nc3ncc(CO)c(Oc4c(C)cc(-c5ccc(C#N)cc5)cc4C)n3)CC2)cc1
EC50 [1]: 0.006 µM | EC50 [2]: 0.031 µM | EC50 [3]: 0.052 µM | EC50 [4]: 0.066 µM | CC50 at 120 h [5]: 6.68 µM | selectivity ratio [6]: 1190 | EC50 [7]: 0.008 µM | EC50 [8]: 0.01 µM | EC50 [9]: 0.019 µM | EC50 [10]: 0.03 µM | IC50 [11]: 0.497 µM

Structure (SMILES): Cc1cc(-c2ccc(C#N)cc2)cc(C)c1Oc1nc(NC2CCN(Cc3cccc([N+](=O)[O-])c3)CC2)ncc1CO
EC50 [1]: 0.009 µM | EC50 [2]: 0.167 µM | EC50 [3]: 0.291 µM | EC50 [4]: 0.646 µM | CC50 at 120 h [5]: 7.36 µM | selectivity ratio [6]: 819 | IC50 [11]: 0.184 µM

Structure (SMILES): Cc1cc(-c2ccc(C#N)cc2)cc(C)c1Oc1nc(NC2CCN(Cc3ccc(C(=O)NCCCO)cc3)CC2)ncc1CO
EC50 [1]: 0.007 µM | EC50 [2]: 0.114 µM | EC50 [3]: 0.055 µM | EC50 [4]: 0.272 µM | CC50 at 120 h [5]: 17.3 µM | selectivity ratio [6]: 2630 | EC50 [7]: 0.01 µM | EC50 [8]: 0.007 µM | EC50 [9]: 0.029 µM | EC50 [10]: 0.026 µM | IC50 [11]: 0.463 µM

Structure (SMILES): CNC(=O)c1cccc(CN2CCC(Nc3ncc(CO)c(Oc4c(C)cc(-c5ccc(C#N)cc5)cc4C)n3)CC2)c1
EC50 [1]: 0.04 µM | EC50 [2]: 0.813 µM | EC50 [3]: 5 µM | EC50 [4]: 5.63 µM | CC50 at 120 h [5]: 20.2 µM | selectivity ratio [6]: 506 | IC50 [11]: 0.305 µM

Structure (SMILES): Cc1cc(-c2ccc(C#N)cc2)cc(C)c1Oc1nc(NC2CCN(Cc3ccc(S(C)(=O)=O)cc3)CC2)ncc1CO
EC50 [1]: 0.008 µM | EC50 [2]: 0.058 µM | EC50 [3]: 0.052 µM | EC50 [4]: 0.163 µM | CC50 at 120 h [5]: 9.17 µM | selectivity ratio [6]: 1190 | EC50 [7]: 0.008 µM | EC50 [8]: 0.018 µM | EC50 [9]: 0.019 µM | EC50 [10]: 0.036 µM | IC50 [11]: 0.27 µM

Structure (SMILES): Cc1cc(-c2ccc(C#N)cc2)cc(C)c1Oc1nc(NC2CCN(Cc3ccccc3C#N)CC2)ncc1CO
EC50 [1]: 0.008 µM | EC50 [2]: 0.2 µM | EC50 [3]: 0.239 µM | EC50 [4]: 0.409 µM | CC50 at 120 h [5]: 5.14 µM | selectivity ratio [6]: 628 | IC50 [11]: 0.226 µM

IC50 [11]: 0.355 µM
Structure (SMILES): Cc1cc(-c2ccncc2)cc(C)c1Oc1nc(NC2CCN(Cc3ccc(C(=O)NCCCO)cc3)CC2)ncc1CO

Structure (SMILES): Cc1cc(-c2ccc(C#N)cc2)cc(C)c1Oc1nc(NC2CCN(Cc3ccc(F)cc3)CC2)ncc1CO
EC50 [1]: 0.009 µM | EC50 [2]: 0.283 µM | EC50 [3]: 0.558 µM | EC50 [4]: 0.935 µM | CC50 at 120 h [5]: 5.68 µM | selectivity ratio [6]: 629

Structure (SMILES): COC(=O)/C=C/c1ccc(CN2CCC(Nc3ncc(CO)c(Oc4c(C)cc(-c5ccc(C#N)cc5)cc4C)n3)CC2)cc1
EC50 [1]: 0.007 µM | EC50 [2]: 0.213 µM | EC50 [3]: 0.329 µM | EC50 [4]: 0.357 µM | CC50 at 120 h [5]: 88.3 µM | selectivity ratio [6]: 13400 | IC50 [11]: 0.437 µM

Structure (SMILES): COCCNS(=O)(=O)c1ccc(CN2CCC(Nc3ncc(CO)c(Oc4c(C)cc(-c5ccc(C#N)cc5)cc4C)n3)CC2)cc1
EC50 [1]: 0.006 µM | EC50 [2]: 0.047 µM | EC50 [3]: 0.034 µM | EC50 [4]: 0.045 µM | CC50 at 120 h [5]: 6.71 µM | selectivity ratio [6]: 1030 | EC50 [7]: 0.006 µM | EC50 [8]: 0.007 µM | EC50 [9]: 0.034 µM | EC50 [10]: 0.04 µM | IC50 [11]: 0.575 µM

Structure (SMILES): COC(=O)c1ccc(CN2CCC(Nc3ncc(CO)c(Oc4c(C)cc(-c5ccc(C#N)cc5)cc4C)n3)CC2)cc1
EC50 [1]: 0.012 µM | EC50 [2]: 0.175 µM | EC50 [3]: 0.175 µM | EC50 [4]: 0.469 µM | CC50 at 120 h [5]: 13.9 µM | selectivity ratio [6]: 1120 | IC50 [11]: 0.377 µM

Structure (SMILES): Cc1cc(-c2ccc(C#N)cc2)cc(C)c1Oc1nc(NC2CCN(Cc3ccc([N+](=O)[O-])cc3)CC2)ncc1CO
EC50 [1]: 0.008 µM | EC50 [2]: 0.189 µM | EC50 [3]: 0.54 µM | EC50 [4]: 0.306 µM | CC50 at 120 h [5]: 3.23 µM | selectivity ratio [6]: 381 | IC50 [11]: 0.202 µM

Structure (SMILES): Cc1cc(-c2ccc(C#N)cc2)cc(C)c1Oc1nc(NC2CCN(Cc3ccc(C(N)=O)cc3)CC2)ncc1CO
EC50 [1]: 0.007 µM | EC50 [2]: 0.156 µM | EC50 [3]: 0.26 µM | EC50 [4]: 0.304 µM | CC50 at 120 h [5]: 21.8 µM | selectivity ratio [6]: 3200 | IC50 [11]: 0.265 µM

Structure (SMILES): Cc1cc(-c2ccc(C#N)cc2)cc(C)c1Oc1nc(NC2CCN(Cc3ccc(S(=O)(=O)NCCCO)cc3)CC2)ncc1CO
EC50 [1]: 0.026 µM | EC50 [2]: 0.24 µM | EC50 [3]: 0.114 µM | EC50 [4]: 0.268 µM | CC50 at 120 h [5]: 6.32 µM | selectivity ratio [6]: 247 | IC50 [11]: 0.543 µM

Structure (SMILES): Cc1cc(-c2ccc(C#N)cc2)cc(C)c1Oc1nc(NC2CCN(Cc3ccc(S(=O)(=O)NCCO)cc3)CC2)ncc1CO
EC50 [1]: 0.01 µM | EC50 [2]: 0.228 µM | EC50 [3]: 0.069 µM | EC50 [4]: 0.327 µM | CC50 at 120 h [5]: 15.5 µM | selectivity ratio [6]: 1630 | IC50 [11]: 0.413 µM

Structure (SMILES): Cc1ccc(CN2CCC(Nc3ncc(CO)c(Oc4c(C)cc(-c5ccc(C#N)cc5)cc4C)n3)CC2)cc1
EC50 [1]: 0.013 µM | EC50 [2]: 0.237 µM | EC50 [3]: 0.81 µM | EC50 [4]: 1.12 µM | CC50 at 120 h [5]: 3.66 µM | selectivity ratio [6]: 285 | IC50 [11]: 0.626 µM

Structure (SMILES): Cc1cc(-c2ccc(C#N)cc2)cc(C)c1Oc1nc(NC2CCN(Cc3ccc(C(F)(F)F)cc3)CC2)ncc1CO
EC50 [1]: 0.04 µM | EC50 [2]: 0.701 µM | EC50 [3]: 1.59 µM | EC50 [4]: 2.6 µM | CC50 at 120 h [5]: 5.05 µM | selectivity ratio [6]: 127

Structure (SMILES): Cc1cc(-c2ccc(C#N)cc2)cc(C)c1Oc1nc(NC2CCN(Cc3cccc(C(N)=O)c3)CC2)ncc1CO
EC50 [1]: 0.008 µM | EC50 [2]: 0.255 µM | EC50 [3]: 0.271 µM | EC50 [4]: 1.21 µM | CC50 at 120 h [5]: 18.4 µM | selectivity ratio [6]: 2230 | IC50 [11]: 0.201 µM

EC50 [1]: 0.014 µM
Structure (SMILES): Cc1cc(-c2ccc(C#N)cc2)cc(C)c1Oc1nc(NC2CCN(Cc3ccc(C(=O)NCCO)cc3)CC2)ncc1CO
CC50 at 120 h [5]: 16.3 µM | selectivity ratio [6]: 1140

Structure (SMILES): CNC(=O)c1ccc(CN2CCC(Nc3ncc(CO)c(Oc4c(C)cc(-c5ccc(C#N)cc5)cc4C)n3)CC2)cc1
EC50 [1]: 0.023 µM | EC50 [2]: 0.551 µM | EC50 [3]: 1.39 µM | EC50 [4]: 4.69 µM | CC50 at 120 h [5]: 28.1 µM | selectivity ratio [6]: 1250 | IC50 [11]: 0.438 µM

Structure (SMILES): Cc1cc(-c2ccc(C#N)cc2)cc(C)c1Oc1nc(NC2CCN(Cc3ccc(OC(F)(F)F)cc3)CC2)ncc1CO
EC50 [1]: 0.043 µM | EC50 [2]: 0.479 µM | EC50 [3]: 1.08 µM | EC50 [4]: 1.26 µM | CC50 at 120 h [5]: 5.96 µM | selectivity ratio [6]: 140 | IC50 [11]: 0.375 µM and 0.249 µM

Structure (SMILES): O=C1Nc2ccc(Cl)cc2[C@@](C#CC2CC2)(C(F)(F)F)O1 [EFAVIRENZ]
EC50 [4]: 0.579 µM | CC50 at 120 h [5]: > 6.35 µM | EC50 [7]: 0.055 µM | EC50 [9]: 0.008 µM | EC50 [10]: 0.01 µM

Structure (SMILES): Cc1ccnc2c1NC(=O)c1cccnc1N2C1CC1 [NEVIRAPINE]
EC50 [2]: 9.31 µM | EC50 [3]: 6.46 µM | EC50 [4]: > 15.3 µM | CC50 at 120 h [5]: > 15.3 µM | EC50 [7]: 1360 µM | EC50 [8]: 2.18 µM | EC50 [9]: 6.92 µM

Structure (SMILES): Cc1cc(/C=C/C#N)cc(C)c1Nc1ccnc(Nc2ccc(C#N)cc2)n1 [RILPIVIRINE]
EC50 [1]: 0.001 µM | EC50 [7]: 0.002 µM

Structure (SMILES): Cc1cn([C@H]2C[C@H](N=[N+]=[N-])[C@@H](CO)O2)c(=O)[nH]c1=O [ZIDOVUDINE]
EC50 [1]: 0.027 µM | EC50 [2]: 0.015 µM | EC50 [3]: 0.017 µM | EC50 [4]: 0.034 µM | CC50 at 120 h [5]: > 7.49 µM | selectivity ratio [6]: > 281 | EC50 [8]: 0.029 µM | EC50 [9]: 0.022 µM | EC50 [10]: 0.032 µM
